Read-outs that look alike come from different tables or passages of the source.
Tests used:
EGFR L858R/T790M/C797S = EGFR L858R/T790M/C797S (Homo sapiens, UniProt P00533, C797S/L858R/T790M); test: Biochemical EGFR kinase inhibition assay (Lance Ultra TR-FRET), triple mutant L858R/T790M/C797S
Procedure, shortened: (§1)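 In this biochemical assay, phosphorylation after a one-hour room-temperature reaction was detected with europium-labelled anti-phosphopeptide antibody at 2 nM final concentration.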

EGFR wildtype (WT) = EGFR wildtype (WT) (Homo sapiens, UniProt P00533); test: Biochemical EGFR kinase inhibition assay (Lance Ultra TR-FRET), wildtype
Procedure, shortened: as §1

EGFR Del19/C797S = EGFR Del19/C797S (Homo sapiens, UniProt P00533, C797S/DEL746-750); test: Biochemical EGFR kinase inhibition assay (Lance Ultra TR-FRET), double mutant del19/C797S
Procedure, shortened: as §1

EGFR Del19/T790M/C797S = EGFR Del19/T790M/C797S (Homo sapiens, UniProt P00533, C797S/DEL746-750/T790M); test: Biochemical EGFR kinase inhibition assay (Lance Ultra TR-FRET), triple mutant del19/T790M/C797S
Procedure, shortened: as §1

EGFR L858R/C797S = EGFR L858R/C797S (Homo sapiens, UniProt P00533, C797S/L858R); test: Biochemical EGFR kinase inhibition assay (Lance Ultra TR-FRET), double mutant L858R/C797S
Procedure, shortened: as §1

[1] = IC50 L858R/T790M/C797S (nM), 100 μM ATP
[2] = Km ATP, read-out: IC50 L858R/T790M/C797S (nM), Km ATP
[3] = Km ATP, read-out: IC50 WT (nM), Km ATP
[4] = IC50 Del19/C797S (nM), 100 μM ATP
[5] = Km ATP, read-out: IC50 Del19/C797S (nM), Km ATP
[6] = IC50 Del19/T790M/C797S (nM), 100 μM ATP
[7] = Km ATP, read-out: IC50 Del19/T790M/C797S (nM), Km ATP
[8] = IC50 L858R/C797S (nM), 100 μM ATP
[9] = Km ATP, read-out: IC50 L858R/C797S (nM), Km ATP

Chain of EGFR wildtype (WT) (P00533 25-1210): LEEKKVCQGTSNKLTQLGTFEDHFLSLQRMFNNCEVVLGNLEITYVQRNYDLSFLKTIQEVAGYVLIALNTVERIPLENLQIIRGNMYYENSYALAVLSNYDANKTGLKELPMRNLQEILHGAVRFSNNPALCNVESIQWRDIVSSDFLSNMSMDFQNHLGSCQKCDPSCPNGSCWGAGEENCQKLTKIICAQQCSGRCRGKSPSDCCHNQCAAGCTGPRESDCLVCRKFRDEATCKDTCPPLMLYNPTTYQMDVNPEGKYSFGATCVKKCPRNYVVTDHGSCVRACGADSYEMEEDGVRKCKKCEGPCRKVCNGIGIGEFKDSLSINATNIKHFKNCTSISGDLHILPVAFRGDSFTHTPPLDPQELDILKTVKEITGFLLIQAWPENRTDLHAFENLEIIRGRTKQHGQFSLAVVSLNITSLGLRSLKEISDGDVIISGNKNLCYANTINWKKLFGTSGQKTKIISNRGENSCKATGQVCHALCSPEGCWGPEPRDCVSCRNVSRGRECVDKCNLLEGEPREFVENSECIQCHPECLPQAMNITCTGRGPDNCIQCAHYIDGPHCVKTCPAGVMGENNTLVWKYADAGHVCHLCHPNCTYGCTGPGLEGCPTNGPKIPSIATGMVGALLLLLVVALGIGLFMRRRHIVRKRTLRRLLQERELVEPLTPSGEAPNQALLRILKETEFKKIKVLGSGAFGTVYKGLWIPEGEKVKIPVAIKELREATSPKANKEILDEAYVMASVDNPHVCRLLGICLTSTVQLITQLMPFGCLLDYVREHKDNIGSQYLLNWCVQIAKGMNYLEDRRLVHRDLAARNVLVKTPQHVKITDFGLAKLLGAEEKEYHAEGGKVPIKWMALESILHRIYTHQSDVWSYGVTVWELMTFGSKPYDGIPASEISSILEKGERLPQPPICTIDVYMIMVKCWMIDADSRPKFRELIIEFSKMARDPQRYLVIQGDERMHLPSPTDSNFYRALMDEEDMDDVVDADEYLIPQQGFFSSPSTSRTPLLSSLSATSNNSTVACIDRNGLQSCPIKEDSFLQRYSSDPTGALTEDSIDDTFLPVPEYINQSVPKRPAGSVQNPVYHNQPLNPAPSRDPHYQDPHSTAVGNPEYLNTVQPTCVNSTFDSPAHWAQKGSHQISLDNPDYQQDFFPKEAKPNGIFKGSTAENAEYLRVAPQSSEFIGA
Chain of EGFR L858R/T790M/C797S (P00533 25-1210 T790M/C797S/L858R): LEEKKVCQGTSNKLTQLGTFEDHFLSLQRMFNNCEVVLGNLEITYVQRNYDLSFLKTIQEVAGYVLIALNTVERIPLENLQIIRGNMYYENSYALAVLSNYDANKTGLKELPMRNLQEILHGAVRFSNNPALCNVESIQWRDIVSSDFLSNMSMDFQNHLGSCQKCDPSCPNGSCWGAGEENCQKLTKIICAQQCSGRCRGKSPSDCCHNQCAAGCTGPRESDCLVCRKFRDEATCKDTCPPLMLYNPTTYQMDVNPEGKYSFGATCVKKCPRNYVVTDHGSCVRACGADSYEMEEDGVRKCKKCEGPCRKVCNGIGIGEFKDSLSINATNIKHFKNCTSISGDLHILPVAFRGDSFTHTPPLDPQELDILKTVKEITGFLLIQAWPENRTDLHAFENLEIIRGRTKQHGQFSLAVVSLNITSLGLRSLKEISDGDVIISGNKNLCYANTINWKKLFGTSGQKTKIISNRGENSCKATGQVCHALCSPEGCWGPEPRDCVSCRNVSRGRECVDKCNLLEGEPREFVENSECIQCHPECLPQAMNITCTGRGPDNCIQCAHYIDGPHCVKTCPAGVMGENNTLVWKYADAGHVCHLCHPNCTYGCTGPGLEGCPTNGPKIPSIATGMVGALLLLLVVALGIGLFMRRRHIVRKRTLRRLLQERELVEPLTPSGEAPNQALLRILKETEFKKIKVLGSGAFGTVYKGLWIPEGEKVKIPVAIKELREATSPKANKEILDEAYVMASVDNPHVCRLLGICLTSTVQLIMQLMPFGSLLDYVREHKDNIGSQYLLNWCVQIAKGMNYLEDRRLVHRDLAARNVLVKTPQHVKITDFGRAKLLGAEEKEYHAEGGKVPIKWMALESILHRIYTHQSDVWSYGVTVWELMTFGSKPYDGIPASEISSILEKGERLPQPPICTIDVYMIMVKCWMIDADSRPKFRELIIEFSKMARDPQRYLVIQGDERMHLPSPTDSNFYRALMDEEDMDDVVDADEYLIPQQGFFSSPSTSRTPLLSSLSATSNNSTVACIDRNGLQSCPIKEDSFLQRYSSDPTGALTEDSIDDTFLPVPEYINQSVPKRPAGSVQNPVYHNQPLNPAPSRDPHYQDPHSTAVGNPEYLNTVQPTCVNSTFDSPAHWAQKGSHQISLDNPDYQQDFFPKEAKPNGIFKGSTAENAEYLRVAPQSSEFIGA
Chain of EGFR Del19/C797S (P00533 with tags, fused parts or gaps DEL746-750/C797S): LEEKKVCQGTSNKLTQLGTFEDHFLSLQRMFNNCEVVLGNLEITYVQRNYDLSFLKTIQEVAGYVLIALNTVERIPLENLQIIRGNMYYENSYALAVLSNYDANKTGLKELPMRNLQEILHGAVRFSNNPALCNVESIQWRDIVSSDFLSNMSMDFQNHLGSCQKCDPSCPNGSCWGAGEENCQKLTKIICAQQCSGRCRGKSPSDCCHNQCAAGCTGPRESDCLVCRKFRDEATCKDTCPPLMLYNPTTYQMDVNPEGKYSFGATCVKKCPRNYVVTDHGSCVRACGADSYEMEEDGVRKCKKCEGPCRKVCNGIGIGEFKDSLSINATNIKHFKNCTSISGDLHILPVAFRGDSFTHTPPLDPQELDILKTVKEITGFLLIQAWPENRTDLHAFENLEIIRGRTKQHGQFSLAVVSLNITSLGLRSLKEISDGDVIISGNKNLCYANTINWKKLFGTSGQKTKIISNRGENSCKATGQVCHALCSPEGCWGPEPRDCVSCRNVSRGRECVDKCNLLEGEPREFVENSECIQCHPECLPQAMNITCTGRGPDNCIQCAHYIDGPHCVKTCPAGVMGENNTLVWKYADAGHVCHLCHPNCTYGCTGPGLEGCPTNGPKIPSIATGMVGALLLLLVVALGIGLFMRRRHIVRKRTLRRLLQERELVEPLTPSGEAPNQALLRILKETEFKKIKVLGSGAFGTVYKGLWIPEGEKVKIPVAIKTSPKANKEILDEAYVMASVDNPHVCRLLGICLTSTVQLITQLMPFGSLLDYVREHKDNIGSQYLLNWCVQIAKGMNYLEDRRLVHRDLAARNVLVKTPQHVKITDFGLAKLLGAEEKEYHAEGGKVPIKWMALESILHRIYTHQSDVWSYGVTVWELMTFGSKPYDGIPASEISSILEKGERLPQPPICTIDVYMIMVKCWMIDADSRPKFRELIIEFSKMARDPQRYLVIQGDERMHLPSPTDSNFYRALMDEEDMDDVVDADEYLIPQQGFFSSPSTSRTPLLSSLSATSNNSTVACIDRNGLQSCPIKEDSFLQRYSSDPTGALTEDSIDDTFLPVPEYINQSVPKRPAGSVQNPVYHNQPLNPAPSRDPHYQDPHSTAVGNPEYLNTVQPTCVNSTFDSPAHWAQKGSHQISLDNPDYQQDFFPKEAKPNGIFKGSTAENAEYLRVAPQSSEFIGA
Chain of EGFR Del19/T790M/C797S (P00533 with tags, fused parts or gaps DEL746-750/T790M/C797S): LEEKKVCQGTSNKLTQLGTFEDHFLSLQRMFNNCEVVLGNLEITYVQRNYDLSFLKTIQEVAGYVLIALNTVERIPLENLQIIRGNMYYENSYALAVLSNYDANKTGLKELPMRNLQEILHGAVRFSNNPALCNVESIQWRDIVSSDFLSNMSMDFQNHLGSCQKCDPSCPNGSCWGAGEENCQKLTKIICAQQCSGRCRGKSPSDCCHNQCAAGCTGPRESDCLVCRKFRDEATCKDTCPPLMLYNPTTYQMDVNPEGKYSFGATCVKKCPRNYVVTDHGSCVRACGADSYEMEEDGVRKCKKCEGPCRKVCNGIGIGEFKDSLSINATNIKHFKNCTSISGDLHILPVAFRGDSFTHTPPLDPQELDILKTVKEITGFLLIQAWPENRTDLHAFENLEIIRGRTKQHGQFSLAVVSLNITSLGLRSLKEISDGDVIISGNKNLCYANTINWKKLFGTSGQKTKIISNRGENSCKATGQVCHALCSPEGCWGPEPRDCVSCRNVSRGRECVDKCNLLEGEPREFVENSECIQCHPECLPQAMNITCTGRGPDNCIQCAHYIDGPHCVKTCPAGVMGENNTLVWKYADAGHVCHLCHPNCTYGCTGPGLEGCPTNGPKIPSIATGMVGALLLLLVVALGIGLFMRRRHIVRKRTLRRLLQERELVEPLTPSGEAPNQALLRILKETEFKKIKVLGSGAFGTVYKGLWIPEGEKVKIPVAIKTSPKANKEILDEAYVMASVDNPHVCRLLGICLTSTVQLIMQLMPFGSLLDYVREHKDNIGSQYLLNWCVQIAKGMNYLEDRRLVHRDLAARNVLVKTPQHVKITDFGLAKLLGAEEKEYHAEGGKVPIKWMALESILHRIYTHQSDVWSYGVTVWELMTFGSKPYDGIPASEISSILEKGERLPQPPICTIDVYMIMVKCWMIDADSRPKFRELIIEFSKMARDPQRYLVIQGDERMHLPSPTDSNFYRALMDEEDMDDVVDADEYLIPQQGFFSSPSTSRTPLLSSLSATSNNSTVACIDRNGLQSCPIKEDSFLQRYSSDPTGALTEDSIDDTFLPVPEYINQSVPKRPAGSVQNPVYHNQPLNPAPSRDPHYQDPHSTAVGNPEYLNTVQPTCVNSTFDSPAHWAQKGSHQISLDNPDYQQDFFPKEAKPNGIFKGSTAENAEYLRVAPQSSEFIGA

Row | Compound | IC50 (EGFR L858R/T790M/C797S; [1]) | IC50 (EGFR L858R/T790M/C797S; [2]) | IC50 (EGFR wildtype (WT); IC50 WT (nM), 100 μM ATP) | IC50 (EGFR wildtype (WT); [3]) | IC50 (EGFR Del19/C797S; [4]) | IC50 (EGFR Del19/C797S; [5]) | IC50 (EGFR Del19/T790M/C797S; [6]) | IC50 (EGFR Del19/T790M/C797S; [7]) | IC50 (EGFR L858R/C797S; [8]) | IC50 (EGFR L858R/C797S; [9])
1 | CN(C)CCC1CCCN(c2cc(Nc3ccnc(-c4cnn(S(=O)(=O)C5CC5)c4)n3)ncc2C#Cc2cnn(CCF)c2)C1 (stereo not drawn) [Example 386, 2-(1-(Cyclopropylsulfonyl)-1H-pyrazol-4-yl)-N-(4-(3-(2-(dimethylamino)ethyl)piperidin-1-yl)-5-((1-(2-fluoroethyl)-1H-pyrazol-4-yl)ethynyl)pyridin-2-yl)pyrimidin-4-amine] | 0.4 nM | 0.1 nM | 1790 nM | 3 nM | 1.4 nM | 0.9 nM | 0.3 nM | 0.1 nM | 7.6 nM | 0.9 nM
2 | CS(=O)(=O)N1CCC(C#Cc2cnc(Nc3ccnc(-c4cnn(S(=O)(=O)C5CC5)c4)n3)cc2N[C@H]2CC[C@@H](CO)CC2)CC1 [Example 387, ((1s,4s)-4-((2-((2-(1-(Cyclopropylsulfonyl)-1H-pyrazol-4-yl)pyrimidin-4-yl)amino)-5-((1-(methylsulfonyl)piperidin-4-yl)ethynyl)pyridin-4-yl)amino)cyclohexyl)methanol] | 0.7 nM | 0.2 nM | > 10000 nM | 9.5 nM | 4.4 nM | 1.2 nM | 0.6 nM | 0.3 nM | 36.7 nM | 2.7 nM
3 | CS(=O)(=O)N1CCC(C#Cc2cnc(Nc3ccnc(-c4cnn(S(=O)(=O)C5CC5)c4)n3)cc2NC[C@H]2CC[C@H](CO)CC2)CC1 [Example 388, ((1r,4r)-4-(((2-((2-(1-(Cyclopropylsulfonyl)-1H-pyrazol-4-yl)pyrimidin-4-yl)amino)-5-((1-(methylsulfonyl)piperidin-4-yl)ethynyl)pyridin-4-yl)amino)methyl)cyclohexyl)methanol] | 19.3 nM | 2 nM | > 10000 nM | 312 nM | 127 nM | 33.3 nM | 6.6 nM | 2.7 nM | 624 nM | 38.6 nM
4 | CC1(CO)CCN(c2cc(Nc3ccnc(-c4cnn(S(=O)(=O)C5CC5)c4)n3)ncc2C#CC2CCN(S(C)(=O)=O)CC2)CC1 [Example 389, (1-(2-((2-(1-(Cyclopropylsulfonyl)-1H-pyrazol-4-yl)pyrimidin-4-yl)amino)-5-((1-(methylsulfonyl)piperidin-4-yl)ethynyl)pyridin-4-yl)-4-methylpiperidin-4-yl)methanol] | 0.7 nM | 0.1 nM | 5200 nM | 4.6 nM | 2.1 nM | 0.4 nM | 0.5 nM | 0.3 nM | 14.5 nM | 1.6 nM
5 | O=S(=O)(C1CC1)N1CCC(C#Cc2cnc(Nc3ccnc(-c4cnn(S(=O)(=O)C5CC5)c4)n3)cc2N[C@H]2CC[C@@H](CO)CC2)CC1 [Example 390, ((1s,4s)-4-((2-((2-(1-(Cyclopropylsulfonyl)-1H-pyrazol-4-yl)pyrimidin-4-yl)amino)-5-((1-(cyclopropylsulfonyl)piperidin-4-yl)ethynyl)pyridin-4-yl)amino)cyclohexyl)methanol] | 8.3 nM | 1.1 nM | > 10000 nM | 47.7 nM | 11.6 nM | 7.3 nM | 5.3 nM | 2.5 nM | 192 nM | 30.1 nM
6 | O=S(=O)(C1CC1)N1CCC(C#Cc2cnc(Nc3ccnc(-c4cnn(S(=O)(=O)C5CC5)c4)n3)cc2N[C@H]2CC[C@@H](O)CC2)CC1 [Example 391, (1s,4s)-4-((2-((2-(1-(Cyclopropylsulfonyl)-1H-pyrazol-4-yl)pyrimidin-4-yl)amino)-5-((1-(cyclopropylsulfonyl)piperidin-4-yl)ethynyl)pyridin-4-yl)amino)cyclohexan-1-ol] | 2.1 nM | 0.4 nM | > 10000 nM | 25.6 nM | 5.1 nM | 3 nM | 1.3 nM | 0.6 nM | 63.4 nM | 19.2 nM
7 | O=S(=O)(C1CC1)N1CCC(C#Cc2cnc(Nc3ccnc(-c4cnn(S(=O)(=O)C5CC5)c4)n3)cc2NC[C@H]2CC[C@H](CO)CC2)CC1 [Example 392, ((1r,4r)-4-(((2-((2-(1-(Cyclopropylsulfonyl)-1H-pyrazol-4-yl)pyrimidin-4-yl)amino)-5-((1-(cyclopropylsulfonyl)piperidin-4-yl)ethynyl)pyridin-4-yl)amino)methyl)cyclohexyl)methanol] | 60.1 nM |  | > 10000 nM |  | 212 nM |  | 22 nM |  | 4300 nM | 
8 | O=S(=O)(C1CC1)N1CCC(C#Cc2cnc(Nc3ccnc(-c4cnn(S(=O)(=O)C5CC5)c4)n3)cc2NC2CCC(CO)CC2)C1 (stereo not drawn) [Example 393, ((1s,4s)-4-((2-((2-(1-(Cyclopropylsulfonyl)-1H-pyrazol-4-yl)pyrimidin-4-yl)amino)-5-((1-(cyclopropylsulfonyl)pyrrolidin-3-yl)ethynyl)pyridin-4-yl)amino)cyclohexyl)methanol] | 1.2 nM | 0.4 nM | > 10000 nM | 21.3 nM | 7.9 nM | 7.3 nM | 0.6 nM | 0.5 nM | 50 nM | 3.4 nM
9 | O=S(=O)(C1CC1)N1CCC(C#Cc2cnc(Nc3ccnc(-c4cnn(S(=O)(=O)C5CC5)c4)n3)cc2NC2CCC(O)CC2)C1 (stereo not drawn) [Example 394, (1s,4s)-4-((2-((2-(1-(Cyclopropylsulfonyl)-1H-pyrazol-4-yl)pyrimidin-4-yl)amino)-5-((1-(cyclopropylsulfonyl)pyrrolidin-3-yl)ethynyl)pyridin-4-yl)amino)cyclohexan-1-ol] | 1.5 nM | 0.2 nM | > 10000 nM | 15.7 nM | 12.3 nM | 7.5 nM | 0.6 nM | 0.5 nM | 52.5 nM | 4.3 nM
10 | CC1(CO)CCN(c2cc(Nc3ccnc(-c4cnn(S(=O)(=O)C5CC5)c4)n3)ncc2C#CC2CCN(S(=O)(=O)C3CC3)C2)CC1 (stereo not drawn) [Example 395, (1-(2-((2-(1-(Cyclopropylsulfonyl)-1H-pyrazol-4-yl)pyrimidin-4-yl)amino)-5-((1-(cyclopropylsulfonyl)pyrrolidin-3-yl)ethynyl)pyridin-4-yl)-4-methylpiperidin-4-yl)methanol] | 1.3 nM | 0.3 nM | 9220 nM | 16.9 nM | 8.3 nM | 6.6 nM | 0.7 nM | 0.6 nM | 51.2 nM | 2.7 nM
11 | CN(C)CCC1CCCN(c2cc(Nc3ccnc(-c4cnn(S(=O)(=O)C5CC5)c4)n3)ncc2C#Cc2cnn(C)c2)C1 (stereo not drawn) [Example 396, 2-(1-(Cyclopropylsulfonyl)-1H-pyrazol-4-yl)-N-(4-(3-(2-(dimethylamino)ethyl)piperidin-1-yl)-5-((1-methyl-1H-pyrazol-4-yl)ethynyl)pyridin-2-yl)pyrimidin-4-amine] | 0.7 nM | 0.1 nM | 3390 nM | 6.5 nM | 1 nM | 0.5 nM | 0.5 nM | 1 nM | 12.2 nM | 0.6 nM
12 | CS(=O)(=O)N1CCC(C#Cc2cnc(Nc3ccnc(-c4cnn(S(=O)(=O)C5CC5)c4)n3)cc2NC2CCC(CO)CC2)C1 (stereo not drawn) [Example 397, ((1s,4s)-4-((2-((2-(1-(Cyclopropylsulfonyl)-1H-pyrazol-4-yl)pyrimidin-4-yl)amino)-5-((1-(methylsulfonyl)pyrrolidin-3-yl)ethynyl)pyridin-4-yl)amino)cyclohexyl)methanol] | 1.3 nM | 0.5 nM | > 10000 nM | 16.9 nM | 1.5 nM | 0.7 nM | 0.9 nM | 1.5 nM | 31.3 nM | 1.5 nM
13 | CS(=O)(=O)N1CCC(C#Cc2cnc(Nc3ccnc(-c4cnn(S(=O)(=O)C5CC5)c4)n3)cc2NCC2CCC(O)CC2)C1 (stereo not drawn) [Example 398, (1 r,4r)-4-(((2-((2-(1-(Cyclopropylsulfonyl)-1H-pyrazol-4-yl)pyrimidin-4-yl)amino)-5-((1-(methylsulfonyl)pyrrolidin-3-yl)ethynyl)pyridin-4-yl)amino)methyl)cyclohexan-1-ol] | 29.3 nM | 24.7 nM | > 10000 nM | 294 nM | 44.3 nM | 16.6 nM | 14.9 nM | 26.7 nM | 971 nM | 17.8 nM
14 | CS(=O)(=O)N1CCC(C#Cc2cnc(Nc3ccnc(-c4cnn(S(=O)(=O)C5CC5)c4)n3)cc2NC2CCC(O)CC2)C1 (stereo not drawn) [Example 399, (1s,4s)-4-((2-((2-(1-(Cyclopropylsulfonyl)-1H-pyrazol-4-yl)pyrimidin-4-yl)amino)-5-((1-(methylsulfonyl)pyrrolidin-3-yl)ethynyl)pyridin-4-yl)amino)cyclohexan-1-ol] | 1.2 nM | 0.8 nM | > 10000 nM | 10.2 nM | 1.4 nM | 0.6 nM | 5.7 nM | 1.3 nM | 28.2 nM | 1.6 nM

Reference: patent publication US11981658B2, “Substituted aminopyridine compounds as EGFR inhibitors” (YUHAN CORPORATION, priority 2021, dated 2024)
